According to patent US7053249B2, “Metal chelates and methods of using them for time-resolved fluorescence” (IDEXX Laboratories, Inc., priority 2002, dated 2006):

Columns and labels:
[1] = pH range of stable chelate formation; type: physicochemical; details: Eu chelate
Description: (§1) As mentioned earlier, it is necessary to form the enolate of the dicarbonyl compound for complex formation with metal to occur. […] It is usually (by not universally) desirable to stay below pH 9.0 to allow chelate stability under physiological assay conditions.

[2] = pKa of the enolic carbon of the β-diketone ligands; details: β-diketone ligand
Description: as §1

## O=C(CC(=O)c1ccc2ccccc2c1)c1cc(F)cc(F)c1 [compound 4]
[1]
  pH above which a stable chelate is formed: > 4.5 pH
[2]
  pKa for the enolic carbon: ~4.2
